Measured values reported in patent publication US20240245682A1, “ALPHA-V-BETA-8 INTEGRIN INHIBITORS AND USES THEREOF” (Pliant Therapeutics, Inc., priority 2022, published 2024).
Entries after “also recorded” stand apart in the source; their conditions may differ.

Legend:
[1] = tested on: primary human cancer associated fibroblasts (CAFs); assay: CAF adhesion to TGFβ latency-associated peptide (LAP), high-content imaging; format: cell-based
Experimental: Integrin αVβ1 is expressed in multiple solid tumors and drives the adhesion of cancer-associated fibroblasts (CAFs) to latent TGFβ. In human tumor tissues and in CAFs, αVβ1 protein expression was evaluated via immunohistochemistry (IHC) and custom […] assay, respectively. CAF adhesion to the TGFβ latency-associated peptide (LAP) was quantified in the presence or absence of Compound 39 in vitro by high-content microscopy imaging. The activity of Compound 39 in combination with anti-mPD-1 on fibrotic markers was evaluated in the EMT6 tumor model in vivo by gene expression analysis using the Nanostring® nCounter analysis system. Compound 39-treated human breast tumor tissue was analyzed for fibrotic marker α-smooth muscle actin (αSMA) using immunofluorescence.
αvβ1 protein expression was evaluated in human tumor tissues via immunohistochemistry. αvβ1 protein levels in primary human CAFs isolated from pancreatic carcinoma, lung adenocarcinoma, and lung squamous cell carcinoma were quantified via custom electrochemiluminescence assay. CAF adhesion to latency associated peptide (LAP), the integrin-binding region of latent TGF-β, was quantified in the presence or absence of Compound 39 of the examples and a small molecule selective inhibitor of αvβ1 by high-content imaging in vitro. […]

KPC tumors = assay: Orthotopic KPC syngeneic model of PDAC (Example B11)
Experimental: The preclinical efficacy of Compound 39 of the examples was determined in genetically-defined (LSL-KrasG12D/+; LSL-Trp53R172H/+; Pdx1-Cre (KPC), and Pan02) and genomically diverse patient-derived PDA xenograft models. Clinically relevant combinations with standard of care (SoC) chemotherapy and anti-programmed death receptor-1 antibody (anti mPD-1) were tested by monitoring tumor growth, metastasis, and animal survival. Mechanistic assessment of alterations in the tumor microenvironment (TME) was performed using transcriptomic, immunohistochemical, and immunofluorescence approaches.
Animals were prepared for injection using standard approved anesthesia. Mice were shaved and tumor cells 500 KPC cells were orthotopically implanted (in pancreas) in a 100 μL cell suspension.
Tumor cells were allowed to form pancreatic tumors for one week. Mice were randomized into groups and treated with indicated compounds and dose regimens according to the schema outlined in Table B-7.
Compound 39 was administered in a solution containing 10% v/v ethanol, 70% w/v propylene glycol, and 20% v/v PBS and administered to mice via oral gavage at a dose of 300 mg/kg body weight over the duration of 22 days (for timepoint study) or 80 days (survival study). The mAbs, anti-mPD-1 and anti-αVβ8, were each administered in PBS by intraperitoneal injection at a dose of 10 mg/kg body weight twice a week (for 2 weeks).
Since these were orthotopic tumors, tumor volume measurement was not possible. Tumor weights were determined at the end of the study. Additionally, body weight of mice and any change in behavior/appearance were monitored twice a week for any signs of discomfort/toxicity.
The study was terminated either at 22 days after the first dose, or at 80 days for the survival study. Mice were euthanized and tumors were collected. Half of the tumor was snap frozen in liquid nitrogen and the other half was fixed in formalin.
Formalin (10%) fixed tissues were sent to Histowiz (a clinical research organization providing complete histology services) for paraffin embedding and sectioning. Using standard protocols optimized by Histowiz, tissue sections were stained for hematoxylin and eosin and immunostained for CD8, CD4, Cleaved caspase-3, and FoxP3, which are specific membrane markers for cytotoxic, helper, and regulator T cells, respectively. Additionally, tissues were stained with Pico Sirius Red (PSR) and second harmonic imaging (SHG) analysis was performed to evaluate stromal collagen density.

human integrin αVβ8 = human integrin αVβ8 (Homo sapiens, UniProt P06756+P26012); assay: AlphaScreen proximity-based integrin binding assay with TGF-b1 LAP; settings: values given as ranges
In short: (§1)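 Purified human integrin incubated with compound, TGF-b1 LAP, biotinylated anti-LAP antibody and acceptor beads for 2 h, then streptavidin donor beads 30 min, room temperature, in 50 mM Tris-HCl pH 7.5, 0.1% BSA, 1 mM CaCl2/MgCl2. AlphaScreen signal (680 nm excitation, 520-620 nm emission); IC50 by four-parameter fit.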

human integrin αVβ1 = human integrin αVβ1 (Homo sapiens, UniProt P05556+P06756); assay: as above; settings: values given as ranges
In short: as §1

human integrin αVβ6 = human integrin αVβ6 (Homo sapiens, UniProt P06756+P18564); assay: as above; settings: values given as ranges
In short: as §1

TKCC-10 PDX = assay: Orthotopic TKCC-10 (PDX-10) PDX model of PDAC (Example B12); format: in vivo, NSG mice
Experimental: Table B-9 depicts the study design to determine the efficacy of selective αvβ1/αvβ8 SMI in the orthotopic ECM-high PDX models of PDAC. Table B-10 depicts the study design for the TKCC-10 PDX model.
TKCC-10 PDX bearing mice were treated with dose regimen according to the schematic in Table B-9 and FIG. 24A depicts a schematic diagram of the treatment regimen in the TKCC-10 mice. FIG. 24B depicts a graph showing final tumor weight for TKCC-10 PDX bearing mice after treatment with G/A, Compound 39, and Compound 39+G/A. FIG. 24C depicts a graph showing final tumor weight for TKCC-10 PDX bearing mice after treatment with G/A, ADWA-11, and ADWA-11+G/A.

Sequence of human integrin αVβ6 (P06756 31-992 limits assumed): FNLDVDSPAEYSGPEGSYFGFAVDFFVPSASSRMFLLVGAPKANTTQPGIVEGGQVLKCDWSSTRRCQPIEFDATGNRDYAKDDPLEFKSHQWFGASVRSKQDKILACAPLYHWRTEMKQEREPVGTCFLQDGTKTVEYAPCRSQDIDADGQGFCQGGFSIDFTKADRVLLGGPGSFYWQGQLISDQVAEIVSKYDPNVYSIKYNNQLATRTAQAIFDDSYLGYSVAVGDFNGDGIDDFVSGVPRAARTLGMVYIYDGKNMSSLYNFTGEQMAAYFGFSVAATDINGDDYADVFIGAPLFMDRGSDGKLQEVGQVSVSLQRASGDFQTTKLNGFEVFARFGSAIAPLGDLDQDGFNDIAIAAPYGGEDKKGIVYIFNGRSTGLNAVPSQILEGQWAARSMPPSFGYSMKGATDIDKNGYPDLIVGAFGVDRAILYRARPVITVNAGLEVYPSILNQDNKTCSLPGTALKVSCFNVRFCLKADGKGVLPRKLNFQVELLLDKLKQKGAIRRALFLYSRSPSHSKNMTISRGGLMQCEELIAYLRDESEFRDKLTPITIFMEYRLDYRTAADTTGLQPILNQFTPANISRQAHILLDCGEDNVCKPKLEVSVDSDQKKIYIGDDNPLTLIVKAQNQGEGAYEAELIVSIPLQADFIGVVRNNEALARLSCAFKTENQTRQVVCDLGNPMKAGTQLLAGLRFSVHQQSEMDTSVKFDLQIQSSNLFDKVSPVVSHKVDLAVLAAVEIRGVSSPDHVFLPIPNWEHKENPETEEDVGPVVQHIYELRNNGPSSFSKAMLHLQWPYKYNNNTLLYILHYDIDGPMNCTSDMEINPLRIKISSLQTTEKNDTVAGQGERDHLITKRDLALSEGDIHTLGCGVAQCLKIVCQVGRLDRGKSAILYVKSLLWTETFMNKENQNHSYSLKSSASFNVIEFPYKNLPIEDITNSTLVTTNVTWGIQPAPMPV
Sequence of human integrin αVβ6 (P18564 22-707 limits assumed): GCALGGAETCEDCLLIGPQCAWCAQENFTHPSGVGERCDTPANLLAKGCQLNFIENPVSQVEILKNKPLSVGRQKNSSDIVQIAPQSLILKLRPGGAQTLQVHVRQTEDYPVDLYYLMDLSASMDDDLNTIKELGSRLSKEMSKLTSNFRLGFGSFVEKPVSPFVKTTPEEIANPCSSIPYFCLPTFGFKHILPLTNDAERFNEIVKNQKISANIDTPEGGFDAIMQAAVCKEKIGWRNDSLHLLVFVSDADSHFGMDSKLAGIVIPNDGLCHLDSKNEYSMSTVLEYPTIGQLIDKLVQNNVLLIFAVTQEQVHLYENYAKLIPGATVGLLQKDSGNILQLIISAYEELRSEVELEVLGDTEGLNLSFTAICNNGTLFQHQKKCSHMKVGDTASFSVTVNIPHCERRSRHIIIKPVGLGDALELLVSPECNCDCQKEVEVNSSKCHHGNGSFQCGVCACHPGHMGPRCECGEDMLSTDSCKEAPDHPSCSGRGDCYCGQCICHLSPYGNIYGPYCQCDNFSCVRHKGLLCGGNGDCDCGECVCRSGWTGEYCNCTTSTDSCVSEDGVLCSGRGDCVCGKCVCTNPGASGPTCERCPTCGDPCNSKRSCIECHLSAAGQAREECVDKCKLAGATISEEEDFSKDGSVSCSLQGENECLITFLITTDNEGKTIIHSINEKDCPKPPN
Sequence of human integrin αVβ8 (P06756 31-992 limits assumed): as the sequence (P06756 31-992 limits assumed) above
Sequence of human integrin αVβ8 (P26012 43-684 limits assumed): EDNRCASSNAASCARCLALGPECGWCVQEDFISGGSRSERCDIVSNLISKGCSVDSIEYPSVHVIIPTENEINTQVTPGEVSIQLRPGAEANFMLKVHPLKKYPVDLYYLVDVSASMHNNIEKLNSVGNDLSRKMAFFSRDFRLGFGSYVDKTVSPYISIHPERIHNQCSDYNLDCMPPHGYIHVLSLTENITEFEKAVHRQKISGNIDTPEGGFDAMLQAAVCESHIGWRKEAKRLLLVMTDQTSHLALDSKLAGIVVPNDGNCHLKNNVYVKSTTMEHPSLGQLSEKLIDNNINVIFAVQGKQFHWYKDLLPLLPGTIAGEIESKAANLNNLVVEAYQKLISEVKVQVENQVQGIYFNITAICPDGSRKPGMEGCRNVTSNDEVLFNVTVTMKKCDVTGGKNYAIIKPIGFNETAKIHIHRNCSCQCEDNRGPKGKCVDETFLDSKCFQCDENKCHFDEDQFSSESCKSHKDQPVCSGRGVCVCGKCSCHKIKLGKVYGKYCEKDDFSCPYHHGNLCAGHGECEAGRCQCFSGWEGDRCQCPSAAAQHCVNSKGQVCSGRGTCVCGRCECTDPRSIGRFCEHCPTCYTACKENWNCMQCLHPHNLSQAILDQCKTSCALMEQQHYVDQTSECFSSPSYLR
Sequence of human integrin αVβ1 (P06756 31-992 limits assumed): as the sequence (P06756 31-992 limits assumed) above
Sequence of human integrin αVβ1 (P05556 21-728 limits assumed): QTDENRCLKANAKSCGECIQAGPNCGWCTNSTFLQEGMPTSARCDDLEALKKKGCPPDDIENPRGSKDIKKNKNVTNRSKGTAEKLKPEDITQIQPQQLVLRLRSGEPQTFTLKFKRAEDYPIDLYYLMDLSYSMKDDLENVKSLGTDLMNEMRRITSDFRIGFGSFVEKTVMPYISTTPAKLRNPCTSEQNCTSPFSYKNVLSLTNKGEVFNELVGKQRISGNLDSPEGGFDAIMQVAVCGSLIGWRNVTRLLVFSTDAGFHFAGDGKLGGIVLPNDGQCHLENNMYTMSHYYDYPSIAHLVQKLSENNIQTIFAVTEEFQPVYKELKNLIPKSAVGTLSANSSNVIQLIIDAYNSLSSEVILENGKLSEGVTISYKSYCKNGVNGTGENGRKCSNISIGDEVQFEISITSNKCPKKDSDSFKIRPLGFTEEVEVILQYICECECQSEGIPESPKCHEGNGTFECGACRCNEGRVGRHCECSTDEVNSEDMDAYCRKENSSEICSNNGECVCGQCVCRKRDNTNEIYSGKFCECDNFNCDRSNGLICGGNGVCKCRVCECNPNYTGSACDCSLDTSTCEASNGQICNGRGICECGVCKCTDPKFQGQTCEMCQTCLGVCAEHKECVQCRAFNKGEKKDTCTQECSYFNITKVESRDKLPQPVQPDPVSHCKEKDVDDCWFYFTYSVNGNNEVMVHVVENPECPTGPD

## Cc1ncnc(Cl)c1C1(C(=O)N[C@@H](CCOCCCCc2ccc3c(n2)NCCC3)C(=O)O)CC1 [Compound 39, N-(1-(4-chloro-6-methylpyrimidin-5-yl)cyclopropane-1-carbonyl)-O-(4-(5,6,7,8-tetrahydro-1,8-naphthyridin-2-yl)butyl)-L-homoserine]
[1]; LUAD, LUSC and pancreatic stellate CAFs, FIG. 103-105
  adhesion of CAFs to LAP: inhibits the adhesion of LUAD, LUSC, and PSC CAFs to TGFβ latency-associated peptide in a dose-dependent manner; also recorded: blocked the binding of CAFs to LAP; also recorded: significantly block in vitro binding of primary human CAFs to LAP
[1]; cell adhesion assays
  binding of latency associated peptide (LAP) to αvβ1: prevented
KPC tumors; 22 day timepoint, Compound 39 300 mg/kg oral gavage, mAbs 10 mg/kg i.p., FIG. 20B
  mean tumor weight: 0.44 ± 0.9 g
KPC tumors; FIG. 22A, 22B
  collagen content (PSR, SHG imaging): significantly reduced the collagen content
KPC tumors; FIG. 79
  reduction in tumor weight compared with vehicle: 45%
KPC tumors; IHC, FIG. 21A
  avg % CD8^+ T cells/ROI, invasive (leading) edge: 3.06±1.05%
KPC tumors; IHC, FIG. 21B
  avg % CD8^+ T cells/ROI, internal tumor: 2.02±0.77%
KPC tumors; in words, FIG. 23, 46, 47
  disease progression / overall survival: delayed disease progression in vivo; also recorded: improved overall survival compared to α-PD-1
KPC tumors; in words, compared to vehicle, FIG. 21E, 21F
  CD4^+ T cells: did not show any significant difference in CD4^+ T cells
KPC tumors; survival study up to 80 days, FIG. 23B, 23C
  median survival (median OS): 45 days
Human integrin αVβ8
  IC50: < 50 nM
Human integrin αVβ1
  IC50: < 50 nM
Human integrin αVβ6
  IC50: ≥ 500 nM
TKCC-10 PDX; 30 days, Compound 39 300 mg/kg BID oral, G 100 mg/kg / A 30 mg/kg i.p. once per week, FIG. 24B
  mean tumor weight: 0.798 ± 0.17 g
TKCC-10 PDX; FIG. 25D
  mean number of lung metastases: 4.1±3.2
TKCC-10 PDX; in words, FIG. 24C, 73
  tumor weight / tumor growth: significantly blocked tumor growth and improved the response to the standard of care (SOC) chemotherapy G/A
